≈ marks a conversion by molar mass, not a printed value. Bounds are passed on as bounds.

The first data set relates to M. tuberculosis H37Rv. Put plainly: in vitro antimycobacterial activity, microdilution panel method. The class given is cell-based, Mycobacterium tuberculosis. As to conditions: Mycobacterium tuberculosis, 336 h, Middlebrook 7H9, Alamar Blue after 14 days, read-out: MIC M. tuberculosis.
What is called MIC is the lowest concentration found to suppress growth. Take `CCCNC(=O)c1nccnc1NCCC` [Compound 25, N-Propyl-3-(propylamino)pyrazine-2-carboxamide]: the MIC was over 100 µg/mL.

For the compound `CCCCCCNC(=O)c1nccnc1Cl` [Compound 6, 3-Chloro-N-hexylpyrazine-2-carboxamide], the MIC was determined as 100 µg/mL (≈ 414 µM).

For `CCCCCNc1nccnc1C(=O)NC` [Compound 13, N-Methyl-3-(pentylamino)pyrazine-2-carboxamide], the MIC amounted to 50 µg/mL (≈ 225 µM).

With `CCCCNc1nccnc1C(=O)NCC` [Compound 20, 3-(Butylamino)-N-ethylpyrazine-2-carboxamide], the MIC is over 100 µg/mL.

In the case of `CCNC(=O)c1nccnc1Cl` [Compound 2, 3-Chloro-N-ethylpyrazine-2-carboxamide], the MIC was over 100 µg/mL.

Turning to `CCCCCCCNc1nccnc1C(=O)NCC` [Compound 23, N-Ethyl-3-(heptylamino)pyrazine-2-carboxamide], the MIC amounted to 50 µg/mL (≈ 189 µM).

Take `CCNc1nccnc1C(=O)NC` [Compound 10, 3-(Ethylamino)-N-methylpyrazine-2-carboxamide]: the MIC is over 100 µg/mL.

As to `CCCCNC(=O)c1nccnc1NCCCC` [Compound 26, N-Butyl-3-(butylamino)pyrazine-2-carboxamide], the MIC is 50 µg/mL (≈ 200 µM).

Turning to `CCCNc1nccnc1C(=O)NC` [Compound 11, N-Methyl-3-(propylamino)pyrazine-2-carboxamide], the MIC was over 100 µg/mL.

On to `CCCCNc1nccnc1C(=O)NC` [Compound 12, 3-(Butylamino)-N-methylpyrazine-2-carboxamide], for which the MIC turned out to be 100 µg/mL (≈ 480 µM).

Consider `CCCCCCCNc1nccnc1C(=O)NC` [Compound 15, 3-(Heptylamino)-N-methylpyrazine-2-carboxamide], for which the MIC turned out to be 25 µg/mL (≈ 99.9 µM).

Tested on in the next data set: not listed separately
Briefly: determination of lipophilicity by HPLC (log k). As to conditions: HPLC capacity factor, C18 column, MeOH 70% / H2O 30%.
Source text: Instrumentation: Agilent Technologies 1200 SL liquid chromatograph with Diode-array Detector SL G1315C (Agilent Technologies Inc., Colorado Springs, CO, USA); pre-column ZORBAX XDB-C18 5 μm, 4 × 4 mm, Part No. 7995118-504 (Agilent Technologies Inc.) and column ZORBAX Eclipse XDB-C18 5 μm, 4.6 × 250 mm, Part No. 7995118-585 (Agilent Technologies Inc.). The separation process was controlled by Agilent ChemStation, version B.04.02 extended by spectral module (Agilent Technologies Inc.). Mobile phase consisted of MeOH (HPLC grade, 70%) and H2O (HPLC-Milli-Q Grade, 30%). Conditions: Flow rate 1.0 mL/min, sample injection volume 20 μL, column temperature 30 °C, detection wavelength 210 nm, monitor wavelength 270 nm. Retention times (tR) were measured in minutes. The dead time of the system (tD) was determined as the retention time of KI methanol solution. Capacity factors k for individual compounds were calculated according to the formula k = (tR − tD)/tD. Log k, calculated from the capacity factor k, is used as the lipophilicity index converted to log scale.
`CCCNC(=O)c1nccnc1NCCC` [Compound 25, N-Propyl-3-(propylamino)pyrazine-2-carboxamide] registered a log k of 0.600.

`CCCCCCNC(=O)c1nccnc1Cl` [Compound 6, 3-Chloro-N-hexylpyrazine-2-carboxamide] registered a log k of 0.239.

Consider `CCCCCNc1nccnc1C(=O)NC` [Compound 13, N-Methyl-3-(pentylamino)pyrazine-2-carboxamide], for which the log k is on record as 0.638.

Take `CCCCNc1nccnc1C(=O)NCC` [Compound 20, 3-(Butylamino)-N-ethylpyrazine-2-carboxamide]: the log k came to 0.617.

Regarding `CCNC(=O)c1nccnc1Cl` [Compound 2, 3-Chloro-N-ethylpyrazine-2-carboxamide], the log k is recorded as −0.591.

In turn, `CCCCCCCNc1nccnc1C(=O)NCC` [Compound 23, N-Ethyl-3-(heptylamino)pyrazine-2-carboxamide] displayed a log k of 1.337.

Compound `CCNc1nccnc1C(=O)NC` [Compound 10, 3-(Ethylamino)-N-methylpyrazine-2-carboxamide] had a log k of −0.052.

Consider `CCCCNC(=O)c1nccnc1NCCCC` [Compound 26, N-Butyl-3-(butylamino)pyrazine-2-carboxamide], for which the log k is 1.077.

In the case of `CCCNc1nccnc1C(=O)NC` [Compound 11, N-Methyl-3-(propylamino)pyrazine-2-carboxamide], the log k stood at 0.166.

Compound `CCCCNc1nccnc1C(=O)NC` [Compound 12, 3-(Butylamino)-N-methylpyrazine-2-carboxamide] gave a log k of 0.401.

Turning to `CCCCCCCNc1nccnc1C(=O)NC` [Compound 15, 3-(Heptylamino)-N-methylpyrazine-2-carboxamide], the log k is listed as 1.118.

Another data set concerns Trichophyton mentagrophytes. Put plainly: in vitro antifungal activity, microdilution broth method. It counts as cell-based. The settings on record: Trichophyton mentagrophytes. As for the experimental part:
Antifungal evaluation was performed using microdilution broth method against 8 fungal strains (Candida albicans ATCC 44859, C. tropicalis 156, C. krusei E28, C. glabrata 20/I, Trichosporon asahii 1188, Aspergillus fumigates 231, Absidia corymbifera 272 and Trichophyton mentagrophytes 445). Compounds were dissolved in DMSO and diluted in a twofold manner with RPMI 1640 medium with glutamine buffered to pH 7.0 (3-morpholinopropane-1-sulfonic acid). […] Static incubation was performed in the dark and humid, at 35 °C for 24 and 48 h (respectively 72 and 120 h for Trichophyton mentagrophytes). The MIC was defined as 80% inhibition of control (50% IC for filament fungi). Drug-free controls were included. The standards were amphotericin B, voriconazole, nystatin and fluconazole.
On the technique in general: Broth dilution looks for growth in wells or tubes with falling amounts of substance.
In turn, `CCCCCCNC(=O)c1nccnc1Cl` [Compound 6, 3-Chloro-N-hexylpyrazine-2-carboxamide] returned a minimal inhibitory concentration (MIC) of 250 µM (≈ 60.4 µg/mL).

Compound `CCCCCNc1nccnc1C(=O)NC` [Compound 13, N-Methyl-3-(pentylamino)pyrazine-2-carboxamide] came in with an MIC of 250 µM (≈ 55.6 µg/mL).

The compound `CCCCCCCNc1nccnc1C(=O)NCC` [Compound 23, N-Ethyl-3-(heptylamino)pyrazine-2-carboxamide] displayed an MIC of 125 µM (≈ 33 µg/mL).

Regarding `CCCCCCCNc1nccnc1C(=O)NC` [Compound 15, 3-(Heptylamino)-N-methylpyrazine-2-carboxamide], the MIC was found to be 125 µM (≈ 31.3 µg/mL).

A further data set has as its system M. tuberculosis H37Rv.
Assay: not given
As to conditions: previously prepared 3-alkylaminopyrazine-2-carboxamides; cited from earlier work.
For the compound `CCCCCCCNc1nccnc1C(N)=O` [3-heptyamino-], the MIC is 50 µg/mL (≈ 212 µM).

As for `CCCCCCCCNc1nccnc1C(N)=O` [3-octylaminopyrazine-2-carboxamide], the MIC is 50 µg/mL (≈ 200 µM).

Consider `CCCCCCNc1nccnc1C(N)=O` [3-hexylamino-], for which the MIC was 50 µg/mL (≈ 225 µM).

A further data set concerns photosystem 2 photosynthetic electron transport (PET) in spinach chloroplasts. Put plainly: inhibition of photosynthetic electron transport (PET) in spinach chloroplasts (Hill reaction, DCPIP). The class given is biochemical, Spinacia oleracea L. As to conditions: spinach chloroplasts. As for the experimental part:
Chloroplasts were prepared from spinach (Spinacia oleracea L.) according to Masarovicova and Kralova. The inhibition of photosynthetic electron transport (PET) in spinach chloroplasts was determined spectrophotometrically (Genesys 6, Thermo Electron Scientific Instruments, Madison, WI, USA), using an artificial electron acceptor 2,6-dichlorophenol-indophenol (DCPIP) according to Kralova et al., and the rate of photosynthetic electron transport (PET) was monitored as a photoreduction of DCPIP. The measurements were carried out in phosphate buffer (0.02 mol/L, pH 7.2) containing sucrose (0.4 mol/L), MgCl2 (0.005 mol/L) and NaCl (0.015 mol/L). The chlorophyll content was 30 mg/L in these experiments and the samples were irradiated (~100 W/m^2 with 10 cm distance) with a halogen lamp (250 W) using a 4 cm water filter to prevent warming of the samples (suspension temperature 22 °C). The studied compounds were dissolved in DMSO due to their limited water solubility. […] The inhibitory efficiency of the studied compounds was expressed by IC50 values, i.e., by molar concentration of the compounds causing 50% PET inhibition relative to the untreated control.
Regarding `CCNC(=O)c1nccnc1Cl` [Compound 2, 3-Chloro-N-ethylpyrazine-2-carboxamide], the “PET-inhibiting activity (in words)” value was “inactive”.

The data set is the same for the next values; noted with them: spinach chloroplasts, DCPIP photoreduction; read-out: IC50 (PET-inhibiting activity).
By IC50 is commonly meant the midpoint of a concentration-inhibition curve. On to `CN(C)C(=O)Nc1ccc(Cl)c(Cl)c1` [DCMU, 3-(3,4-dichlorophenyl)-1,1-dimethylurea, reference compound], for which the IC50 was found to be 2 µM.

`CCCNC(=O)c1nccnc1NCCC` [Compound 25, N-Propyl-3-(propylamino)pyrazine-2-carboxamide]: the IC50 came out at 1300 µM.

In the case of `CCCCCCNC(=O)c1nccnc1Cl` [Compound 6, 3-Chloro-N-hexylpyrazine-2-carboxamide], the IC50 is 1070 µM.

With `CCCCCNc1nccnc1C(=O)NC` [Compound 13, N-Methyl-3-(pentylamino)pyrazine-2-carboxamide], the IC50 was determined as 544 µM.

Take `CCCCNc1nccnc1C(=O)NCC` [Compound 20, 3-(Butylamino)-N-ethylpyrazine-2-carboxamide]: the half-maximal inhibitory concentration (IC50) came out at 1090 µM.

With `CCCCCCCNc1nccnc1C(=O)NCC` [Compound 23, N-Ethyl-3-(heptylamino)pyrazine-2-carboxamide], the IC50 worked out at 48 µM.

As for `CCCCNC(=O)c1nccnc1NCCCC` [Compound 26, N-Butyl-3-(butylamino)pyrazine-2-carboxamide], the IC50 amounted to 202 µM.

Consider `CCCCNc1nccnc1C(=O)NC` [Compound 12, 3-(Butylamino)-N-methylpyrazine-2-carboxamide], for which the IC50 came to 523 µM.

Take `CCCCCCCNc1nccnc1C(=O)NC` [Compound 15, 3-(Heptylamino)-N-methylpyrazine-2-carboxamide]: the IC50 stood at 65 µM.

The data set is the same for the next values; noted with them: spinach chloroplasts; read-out: IC50 (PET inhibition, Hill reaction).
Turning to `CN(C)C(=O)Nc1ccc(Cl)c(Cl)c1` [DCMU, 3-(3,4-dichlorophenyl)-1,1-dimethylurea, reference compound], the IC50 is about 1.9 µM.

The subject of another data set is Staphylococcus epidermidis. Briefly: in vitro antibacterial activity, microdilution broth method. It counts as cell-based.
Details: not given
As to the method:
Microdilution broth method. Antibacterial evaluation was performed against bacterial strains from Czech Collection of Microorganisms (Brno, Czech Republic) (Staphylococcus aureus CCM 4516/08, Escherichia coli CCM 4517, Pseudomonas aeruginosa CCM 1961) or clinical isolates from Department of Clinical Microbiology, University Hospital and Faculty of Medicine in Hradec Králové, Charles University in Prague, Czech Republic (Staphylococcus aureus H 5996/08-methicilin resistant (MRSA), Staphylococcus epidermidis H 6966/08, Enterococcus sp. J 14365/08, Klebsiella pneumoniae D 11750/08, Klebsiella pneumoniae J 14368/08-ESBL positive). All strains were subcultured on Mueller-Hinton agar (MHA) (Difco/Becton Dickinson, Detroit, MI, USA) at 35 °C and maintained on the same medium at 4 °C. The compounds were dissolved in DMSO, and the antibacterial activity was determined in Mueller-Hinton liquid broth (Difco/Becton Dickinson), buffered to pH 7.0. Controls consisted of medium and DMSO alone. […] The standards were neomycin, bacitracin, penicillin G, ciprofloxacin and phenoxymethylpenicilin.
Turning to `CCCCCCCNc1nccnc1C(=O)NCC` [Compound 23, N-Ethyl-3-(heptylamino)pyrazine-2-carboxamide], it took 250 µM (≈ 66.1 µg/mL) to inhibit growth (MIC).

`CCCCCCCNc1nccnc1C(=O)NC` [Compound 15, 3-(Heptylamino)-N-methylpyrazine-2-carboxamide] returned an MIC of 250 µM (≈ 62.6 µg/mL).
